Measurements as given in US20250009914A1, “METHOD FOR SYNTHESIZING HYALURONIC ACID NANOPARTICLES, AND HYALURONIC ACID NANOPARTICLES PREPARED BY METHOD” (Kyungpook National University Industry-Academic Cooperation …, priority 2019, published 2025).

Experiments:
[1] = tested on: HDF-neo, Human primary dermal fibroblast-neonatal; assay: Fibroblast proliferation, WST-8 assay (Ez-cytox); assay type: cell-based; details: 3 day, serum free condition, FIG. 26
Procedure: Next, the fibroblast proliferation effect was evaluated according to a conventional known method.
Evaluation method: WST-8 assay (Ez-cytox) and Procollagen ELISA (Takara #MK101)

[2] = Thermal stability evaluation by HPLC; assay type: physicochemical; details: aqueous solution 100 uM, 50° C. for 48 hours
cellular tyrosinase = target: T1, cellular tyrosinase (Mus musculus, UniProt P11344); assay: Cellular tyrosinase activity assay; assay type: cell-based; details: B16F10, 48 hours; substance left 24 hours at 50° C. compared with −20° C., FIG. 23
T1 construct: Cell line: B16F10 mouse melanoma (Passage 10), 6 well plate; endogenous in cells; host or cells: B16F10 mouse melanoma cells
T1 sequence (P11344 19-533): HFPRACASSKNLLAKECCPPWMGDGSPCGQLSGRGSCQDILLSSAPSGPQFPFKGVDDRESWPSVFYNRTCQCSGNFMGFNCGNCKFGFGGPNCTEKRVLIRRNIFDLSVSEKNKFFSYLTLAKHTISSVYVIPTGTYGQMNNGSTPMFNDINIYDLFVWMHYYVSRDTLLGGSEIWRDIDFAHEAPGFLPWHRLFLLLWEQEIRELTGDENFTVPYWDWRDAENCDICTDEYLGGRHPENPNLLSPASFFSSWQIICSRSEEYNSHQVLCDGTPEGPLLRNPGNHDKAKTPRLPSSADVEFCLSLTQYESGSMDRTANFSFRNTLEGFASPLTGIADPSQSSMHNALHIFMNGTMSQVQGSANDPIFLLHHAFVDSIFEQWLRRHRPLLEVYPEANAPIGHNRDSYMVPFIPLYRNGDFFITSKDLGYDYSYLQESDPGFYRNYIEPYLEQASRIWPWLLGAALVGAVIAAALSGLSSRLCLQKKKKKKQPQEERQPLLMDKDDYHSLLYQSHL
Procedure: Cell line: B16F10 mouse melanoma (Passage 10), 6 well plate, 4×10^5 cells/well
Evaluation method: Cellular tyrosinase activity assay
Experimental substance treatment time: 48 hours
Experimental substance treatment concentration: See FIG. 25

[3] = tested on: B16F10 mouse melanoma cell line; assay: Melanin contents assay; assay type: cell-based; details: B16F10, 48 hours; substance left 24 hours at 50° C. compared with −20° C., FIG. 23
Procedure: Whitening efficacy evaluation was measured by melanin contents assay and cellular tyrosinase activity assay after treating each experimental substance to a B16F10 mouse melanoma cell line and incubating the each experimental substance for 48 hours. As a control, ascorbic acid, ascorbic acid-2-glucoside (AA2G) and HAI (Oligo-HA) used in Example 2 were used. The substances used in the experiment were all left for 24 hours at −20° C. or 50° C. and then used in the experiment.

SMILES | fibroblast proliferation promoting efficacy [1] | oxidation over time [2] | tyrosinase activity (whitening efficacy) (cellular tyrosinase) | melanin production (whitening efficacy) [3]
O=C1O[C@H]([C@@H](O)CO)C(O)=C1O[C@H]1O[C@H](CO)[C@@H](O)[C@H](O)[C@H]1O [AA2G, ascorbic acid-2-glucoside] | almost not shown |  |  | 
CCCCCCCCCCCCCCCC(=O)OCC(O)C1OC(=O)C(OP(=O)(O)O)=C1O (stereo not drawn) [APPS] | almost not shown |  |  | 
O=C1O[C@H]([C@@H](O)CO)C(O)=C1O [ascorbic acid] | almost not shown | not oxidized over time | whitening efficacy disappeared | whitening efficacy disappeared
